Laboratory results as given in patent publication US20240294543A1, “CYCLOHEPTA-THIENO-DIAZEPINE DERIVATIVES AS GABA A GAMMA1 PAM” (Hoffmann-La Roche Inc., priority 2021, published 2024).
Like-named read-outs stand apart in the source and are kept apart here.

Key:
[1] = target: human GABAA α5β2γ1 receptor (Homo sapiens (Human), UniProt P31644+Q8N1C3); assay: Radioligand binding assay, competition for [3H]RO7239181, γ1-containing GABAA subtypes
Description: The affinity of compounds at GABAA γ1 subunit-containing receptors was measured by competition for [^3H]RO7239181 (67.3 Ci/mmol; Roche) binding to membranes from HEK293F cells (ThermoFisher R79007) expressing human (transiently transfected) receptors of composition α5β2γ1, α2β2γ1, α1β2γ1. For better protein expression of the α2 subunit-containing receptors, the 28 amino acid long signal peptide (Met1 to Ala28) of the human GABAA α2 subunit was substituted by the 31 amino acid long signal peptide (Met1 to Ser31) of human GABAA α5 subunit.
(§1) Harvested pellets from HEK293F cells expressing the different GABAA receptor subtypes were resuspended in Mannitol Buffer pH 7.2-7.4 (Mannitol 0.29 M, Triethylamine 10 mM, Acetic acid 10 mM, EDTA 1 mM plus protease inhibitors (20 tablets Complete, Roche Diagnostics Cat. No. 05 056 489 001 per liter)), washed two times and then resuspended at 1:10 to 1:15 dilution in the same buffer. Cell disruption was performed by stirring the suspension in a Parr vessel #4637 at 435 psi for 15 minutes, and then the suspensions were centrifuged at 1000×g for 15 minutes at 4° C. (Beckman Avanti J-HC; rotor JS-4.2). The supernatant (S1) was transferred in a 21 Schott flask and the pellet (P1) was resuspended with Mannitol Buffer up to 175 ml. The resuspended pellet was transferred into a 250 ml Corning centrifugal beaker and centrifuged at 1500×g for 10 minutes at 4° C. (Beckman Avanti J-HC; rotor JS-4.2). The supernatant (S1) was then transferred in the 21 Schott flask and the pellet was discarded. The supernatants (S1) were centrifuged in 500 ml Beckman polypropylene centrifugal beaker at 15'000×g for 30 minutes at 4° C. (Beckman Avanti J-20 XP; rotor JLA-10.500). The pellet (P2) was resuspended with Mannitol Buffer 1:1 and frozen at −80° C. The supernatant (S2) was centrifuged in 100 ml Beckman polypropylene centrifugal tubes at 48000×g for 50 minutes at 4° C. (Beckman Avanti J-20 XP; rotor JA-18). The supernatant (S3) was discarded and the pellet (P3) was resuspended with 1:1 Mannitol Buffer. The P2 and P3 protein concentration was determined with the BIORAD Standard assay method with bovine serum albumin as standard and measured on the NANO-Drop 1000. The membrane suspension was aliquots (500 μl per tube) and stored at −80° C. until required.
(§2) Membrane homogenates were resuspended and polytronised (Polytron PT1200E Kinematica AG) in Potassium Phosphate 10 mM, KCl 100 mM binding buffer at pH 7.4 to a final assay concentration determined with a previous experiment.
Radioligand binding assays were carried out in a volume of 200 μL (96-well plates) which contained 100 μL of cell membranes, [^3H]RO7239181 at a concentration of 1.5 nM (α5β2γ1) or 20-30 nM (α1β2γ1, α2β2γ1) and the test compound in the range of [0.3-10000]×10^−9 M. Nonspecific binding was defined by 10×10^−6 (α5β2γ1) and 30×10^−6 M RO7239181 and typically represented less than 5% (α5β2γ1) and less than 20% (α1β2γ1, α2β2γ1) of the total binding. Assays were incubated to equilibrium for 1 hour at 4° C. and then, membranes were filtered onto unifilter (96-well white microplate with bonded GF/C filters preincubated 20-50 minutes in 0.3% Polyethylenimine) with a Filtermate 196 harvester (Packard BioScience) and washed 4 times with cold Potassium Phosphate 10 mM pH 7.4, KCl 100 mM binding buffer. After anhydrousing, filter-retained radioactivity was detected by liquid scintillation counting. Ki values were calculated using Excel-Fit (Microsoft) and are the means of two determinations.

[2] = target: human GABAA α2β2γ1 receptor (Homo sapiens (Human), UniProt P47869+Q8N1C3); assay: as above
Description: The affinity of compounds at GABAA γ1 subunit-containing receptors was measured by competition for [^3H]RO7239181 (67.3 Ci/mmol; Roche) binding to membranes from HEK293F cells (ThermoFisher R79007) expressing human (transiently transfected) receptors of composition α5β2γ1, α2β2γ1, α1β2γ1.
as §1, §2
Assays were incubated to equilibrium for 1 hour at 4° C. and then, membranes were filtered onto unifilter (96-well white microplate with bonded GF/C filters preincubated 20-50 minutes in 0.3% Polyethylenimine) with a Filtermate 196 harvester (Packard BioScience) and washed 4 times with cold Potassium Phosphate 10 mM pH 7.4, KCl 100 mM binding buffer. After anhydrousing, filter-retained radioactivity was detected by liquid scintillation counting. Ki values were calculated using Excel-Fit (Microsoft) and are the means of two determinations.

[3] = target: human GABAA α1β3γ2 receptor (Homo sapiens (Human), UniProt P14867+P18507); assay: Radioligand binding assay, competition for [3H]Flumazenil, γ2-containing GABAA subtypes; settings: for γ2/γ1 Selectivity Ratio: Ki α1β3γ2 (nM)/Ki α2β2γ1 (nM); for LogSel: Log[Ki α1β3γ2 (nM)/Ki α2β2γ1 (nM)]
Description: The affinity of compounds at GABAA γ2 subunit-containing receptors was measured by competition for [^3H]Flumazenil (81.1 Ci/mmol; Roche) binding to HEK293F cells expressing human (transiently transfected) receptors of composition α1β3γ2.
Harvested pellets from HEK293F cells expressing the different GABAA γ2 receptor subtypes were resuspended in Mannitol Buffer pH 7,2-7,4 and processed as described above for the cells expressing the GABAA γ1 subunit-containing receptors.
Assays were incubated to equilibrium for 1 hour at 4° C. and harvested onto GF/C uni-filters (Packard) by filtration using a Packard harvester and washing with ice-cold wash buffer (50 mM Tris; pH 7.5). After anhydrousing, filter-retained radioactivity was detected by liquid scintillation counting. Ki values were calculated using Excel-Fit (Microsoft) and are the means of two determinations.

[4] = target: h-GABA-A α2β2γ1 (Homo sapiens (Human), UniProt P47869+Q8N1C3); assay: Two-electrode voltage clamp electrophysiology in Xenopus oocytes expressing GABAA receptors; type: cell-based; settings: α2β2γ1 GABAA receptor subtype expressing oocytes, reference PAMs
Description: Xenopus Oocytes Preparation Xenopus laevis oocytes at maturation stages V-VI were used for the expression of cloned mRNA encoding GABAA receptor subunits. Oocytes ready for RNA micro-injection were bought from Ecocyte, Castrop-Rauxel, Germany and stored in modified Barth's medium (composition in mM: NaCl 88, KCl 1, NaHCO3 2.4, HEPES 10, MgSO4 0.82, CaNO3 0.33, CaCl2 0.33, pH=7.5) at 20° C. until the experiment.
Oocytes were plated in 96-well plates for microinjection using the Roboinject automated instrument (MultiChannelSystems, Reutlingen, Germany). Approximately 50 nL of an aqueous solution containing the RNA transcripts for the subunits of the desired GABAA receptor subtype was injected into each oocyte. […] Oocytes were kept in modified Barth's medium (composition in mM: NaCl 88, KCl 1, NaHCO3 […], HEPES 10, MgSO4 0.82, CaNO3 0.33, CaCl2 0.33, pH=7.5) at 20° C. until the experiment.
Electrophysiological experiments were performed using the Roboocyte instrument (MultiChannelSystems, Reutlingen, Germany) on days 3 to 5 after the micro-injection of mRNA. During the experiment the oocytes were constantly superfused by a solution containing (in mM) NaCl 90, KCl 1, HEPES 5, MgCl2 1, CaCl2 1 (pH 7.4). Oocytes were impaled by two glass microelectrodes (resistance: 0.5-0.8 MQ) which were filled with a solution containing KCl 1M+K-acetate 1.5 M and voltage-clamped to −80 mV. The recordings were performed at room temperature using the Roboocyte two-electrode voltage clamp system (Multichannelsystem). After an initial equilibration period of 1.5 min GABA was added for 1.5 min at a concentration evoking approximately 20% of a maximal current response (EC20). After another rest interval of 2.5 min GABA was again added evoking a response of similar amplitude and shape. […] Current traces were recorded at a digitization rate of 10 Hz during and shortly before and after the GABA application.
Each compound and concentration was tested on at least 3 oocytes. Different oocytes were used for different compound concentrations.
For the analysis, the digitized current traces of the first and second GABA response were superimposed and, if necessary, rescaled to equal maximal amplitudes. The ratio between the two responses during the time interval of test compound application was calculated point by point. The extremum of the resulting “ratio trace” was taken as the efficacy (“Fold increase”) of the compound expressed as “% modulation of GABA EC20” (100*(Fold increase−1)).

[5] = Ki h-GABAA α2β2γ1, membranes of HEK293F cells, [3H]RO7239181 20-30 nM, Table 1
[6] = Ki h-GABAA α2β2γ1, membranes of HEK293F cells, [3H]RO7239181 20-30 nM, Table 2

| SMILES | Ki [1] [nM] | Ki [2, 5] [nM] | Ki [2, 6] [nM] | Ki [3] [nM] | γ2/γ1 Selectivity Ratio ([3]; Table 1) | LogSel ([3]; Table 1) | LogSel ([3]; Table 3) | further results |
| --- | --- | --- | --- | --- | --- | --- | --- | --- |
| Cc1nnc2n1-c1sc3c(c1C(c1c(F)cccc1F)=N[C@H]2C)CCCCC3F (single isomer, unassigned) [Example 10] | 2.72 | 18.2 | 18.2 | 1160 | 63.6 | 1.80 |  |  |
| Cc1nnc2n1-c1sc3c(c1C(c1c(F)cccc1F)=N[C@H]2C)COCC[C@@H]3F (single isomer, unassigned) [Example 55] | 9 | 47.8 | 47.8 | 2690 | 56.2 | 1.75 |  |  |
| Cc1nnc2n1-c1ccc(Cl)cc1C(c1ccccc1)=NC2 [Alprazolam, reference compound] |  |  |  |  |  |  | −2.3 |  |
| Clc1ccc2c(c1)C(c1ccccc1)=NCc1nncn1-2 [Estazolam, reference compound] |  |  |  |  |  |  | −2.0 | γ2/γ1 Selectivity Ratio ([3]; Table 3): 0.0089 |
| C[C@@H]1N=C(c2c(F)cccc2F)c2c(sc3c2CCCCC3)-n2c1n[nH]c2=O [Example 6, (7S)-9-(2,6-difluorophenyl)-7-methyl-18-thia-2,4,5,8-tetrazatetracyclo[8.8.0.02,6.011,17]octadeca-1(10),5,8,11(17)-tetraen-3-one] | 3.69 | 37.3 | 37.3 | 2440 | 65.3 | 1.82 |  |  |
| [2H]C1([2H])OCc2c(sc3c2C(c2c(F)cccc2F)=N[C@@H](C)c2nc(C(=O)N4CC(OCC)C4)nn2-3)OC1([2H])[2H] [Example 32, (3-Ethoxyazetidin-1-yl)-[(7S)-14,14,15,15-tetradeuterio-9-(2,6-difluorophenyl)-7-methyl-13,16-dioxa-18-thia-2,3,5,8-tetrazatetracyclo[8.8.0.02,6.011,17]octadeca-1(10),3,5,8,11(17)-pentaen-4-yl]methanone] | 1.88 | 7.7 | 7.7 |  | 747.9 | 2.87 |  | Ki ([3]; HEK293F cells, [3H]Flumazenil 1 nM, Table 1, read-out: Ki h-GABAA α1β3γ2): 5780 nM |
| Cc1nnc2n1-c1sc3c(c1C(c1c(F)cccc1F)=N[C@H]2C)COCC[C@H]3F [Example 54, (7S,16R)-9-(2,6-difluorophenyl)-16-fluoro-3,7-dimethyl-13-oxa-18-thia-2,4,5,8-tetrazatetracyclo[8.8.0.02,6.011,17]octadeca-1(10),3,5,8,11(17)-pentaene] | 9.1 | 35.8 | 35.8 | 5080 | 141.9 |  |  |  |
| Cc1cn2c(n1)[C@H](C)N=C(c1c(F)cccc1F)c1c-2sc2c1COCCC2 [Example 58, (7S)-9-(2,6-difluorophenyl)-4,7-dimethyl-13-oxa-18-thia-2,5,8-triazatetracyclo[8.8.0.02,6.011,17]octadeca-1(10),3,5,8,11(17)-pentaene] | 2.59 | 25 | 25 | 1400 | 56.0 | 1.75 |  |  |
| CN1C(=O)CN=C(c2ccccc2F)c2cc([N+](=O)[O-])ccc21 [Flunitrazepam, reference compound] |  |  |  |  |  |  |  | potentiation of the GABA-induced current [4]: ~60% |
| Cc1ncc2n1-c1ccc(Cl)cc1C(c1ccccc1F)=NC2 [Midazolam, reference compound] |  |  |  |  |  |  | −2.2 | potentiation of the GABA-induced current [4]: ~60% |
| Cc1nnc2n1-c1sc3c(c1C(c1c(F)cccc1F)=N[C@H]2C)CCCC3 [RE-B, (7S)-9-(2,6-difluorophenyl)-3,7-dimethyl-17-thia-2,4,5,8-tetrazatetracyclo[8.7.0.02,6.011,16]heptadeca-1(10),3,5,8,11(16)-pentaene, reference compound] |  |  |  | 21.6 |  |  |  | Ki ([2]; Ki h-GABAA α2β2γ1, Table 3, reference compounds and examples): 57.7 nM; γ2/γ1 Selectivity Ratio ([3]; Table 3): 2.68 |
| Cc1nnc2n1-c1ccc(Cl)cc1C(c1ccccc1Cl)=NC2 [Triazolam, reference compound] |  |  |  |  |  |  | −1.5 | potentiation of the GABA-induced current [4]: ~60% |
